#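 Test compounds were applied to cells in 96-well plates for 48 hours at 5 doses. GI50 marks 50% less growth.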 Activity calls are given as the source filed them. Cut-off read from the data, not from the text of the source: active = GI50 up to about 1.1 µM and inactive = higher.
# How the values were obtained:
# Experiment in all cases: NCI tumour cell line growth inhibition, 48 h
# MDA-N = tested on: MDA-N
# BT-549 = tested on: BT-549
# DMS-114 = tested on: DMS-114
# DLD-1 = tested on: DLD-1
# DMS-273 = tested on: DMS-273
# KM-20L2 = tested on: KM-20L2
# HOP-18 = tested on: HOP-18
# XF498 = tested on: XF498
Compound,GI50 (MDA-N),GI50 (BT-549),also measured
CC(N/N=C(\S)N1CCCC1)c1cccnn1 (stereo not given),1.84 µM (inactive),0.433 µM (active),–
O=C1OC(C(O)C(O)C(O)CO)C(O)C1O (stereo not given),–,> 100 µM (inactive),–
Cc1ccc(/C(O)=C/c2nc3ccccc3oc2=O)cc1,23.6 µM (inactive),44.4 µM (inactive),–
CC1=Nn2c(nc3sc4c(c3c2=O)CCCC4)SC1,28.4 µM (inactive),31.5 µM (inactive),–
Cc1ccc(S(=O)(=O)Oc2cc(S(=O)(=O)O)cc3cc(S(=O)(=O)O)cc(N)c23)cc1,> 100 µM (inactive),> 100 µM (inactive),–
CC(C)=CCc1c(O)cc2oc(-c3ccc(O)cc3O)cc(=O)c2c1O,25.2 µM (inactive),29.8 µM (inactive),–
O=c1[nH]c(N/N=C\C(O)C(O)C(O)CO)nc2ccccc12 (stereo not given),> 100 µM (inactive),> 100 µM (inactive),–
O=C(/C=C/c1cccc([N+](=O)[O-])c1)c1cccnc1,–,–,GI50 (DMS-114): 22.6 µM (inactive); GI50 (DLD-1): 20.3 µM (inactive); GI50 (DMS-273): 25.3 µM (inactive); GI50 (KM-20L2): 27.7 µM (inactive); GI50 (HOP-18): 2.06 µM (inactive); GI50 (XF498): 35.8 µM (inactive)
CCOC1SC(SC)=NN1C(=O)C(OC(C)=O)C(OC(C)=O)C(OC(C)=O)C(OC(C)=O)C(=O)N1N=C(SC)SC1OCC (stereo not given),> 100 µM (inactive),> 100 µM (inactive),–
O=C1/C(=C/c2cccs2)NC(=S)N1CN1CCCCC1,> 100 µM (inactive),–,–
C[C@]12CC[C@H](O)CC1=CC[C@@H]1C2CC[C@]2(C)c3nn(-c4ccc(F)cc4)nc3CC12 (stereo not given in full),81.8 µM (inactive),63.4 µM (inactive),–
COC(=O)C1SC[C@H]2C(=O)N(c3ccccc3)C(=O)N12 (stereo not given in full),> 100 µM (inactive),> 100 µM (inactive),–
Cc1cc(C)c2ccc(N3CCNCC3)nc2n1,> 100 µM (inactive),> 100 µM (inactive),–
COc1ccc2c(=O)c3cc([N+](=O)[O-])ccc3n(C)c2c1,> 100 µM (inactive),> 100 µM (inactive),–
COC(=O)[C@H](C)NC(=O)[C@H](NS(=O)(=O)c1nc2ccccc2s1)c1ccccc1,–,34.7 µM (inactive),–
CC1(C)OC2C(CO)OC(n3cnc(N)nc3=O)C2O1 (stereo not given),> 100 µM (inactive),> 100 µM (inactive),–
C(=N\N=C1NCCN1)/c1ccc2ccccc2c1,14.1 µM (inactive),5.53 µM (inactive),–
CC/C(Cl)=N\OC(=O)Nc1ccc(F)c([N+](=O)[O-])c1,17.7 µM (inactive),16.7 µM (inactive),–
CN(C)CCCN1c2ccc([N+](=O)[O-])cc2CCc2cc([N+](=O)[O-])ccc21,13.8 µM (inactive),–,–

Compound,GI50 (MDA-N),GI50 (BT-549),also measured
O=C1CC(C(O)C(O)C(O)CO)CC(=O)N1 (stereo not given),> 100 µM (inactive),74 µM (inactive),–
C=CCC1(O)C(=O)OC2C(O)COC21O (stereo not given),> 100 µM (inactive),> 100 µM (inactive),–
OCC1OC(n2cnc3c2N=CNC[C@H]3O)C(Cl)C1O (stereo not given in full),> 100 µM (inactive),> 100 µM (inactive),–
O=C(Cc1ccc(OCc2cccc(Cl)c2)cc1)NO,58.9 µM (inactive),26.2 µM (inactive),–
Cc1cccc2c1C/C(=C\c1cccc(C)c1C(=O)O)C2=O,–,> 100 µM (inactive),–
Cc1cc(O)nc(NNC(C#N)c2ccc([N+](=O)[O-])cc2)n1 (stereo not given),–,–,GI50 (DMS-114): 45.6 µM (inactive); GI50 (DLD-1): > 100 µM (inactive); GI50 (DMS-273): 91.4 µM (inactive); GI50 (KM-20L2): > 100 µM (inactive); GI50 (HOP-18): > 100 µM (inactive)
CC(=O)OCC(OC(C)=O)C(OC(C)=O)C(OC(C)=O)C(=O)CNn1c(-c2ccccc2Cl)nc2ccc(Br)cc2c1=O (stereo not given),–,–,GI50 (DMS-114): 30.4 µM (inactive); GI50 (DMS-273): 56.5 µM (inactive); GI50 (KM-20L2): > 100 µM (inactive); GI50 (XF498): 15.5 µM (inactive)
O=C1c2ccccc2C(=O)c2c1ccc1nc3c(nc21)-c1c2ccccc2cc2cccc-3c12,32.6 µM (inactive),80.2 µM (inactive),–
O=C(c1ccccc1)N(C(=O)c1ccccc1)c1nc(SCc2ccccc2)ns1,26.5 µM (inactive),28.8 µM (inactive),–
O=c1/c(=C/c2ccccn2)sc2nc3cc4c(cc3n12)OCCO4,> 100 µM (inactive),> 100 µM (inactive),–
CC(O)(/C=C/c1ccccc1)P(=O)(O)c1ccccc1 (stereo not given),> 100 µM (inactive),–,–
Nc1ncnc2c1ncn2[C@@H]1O[C@H](COP(=O)(O)OP(=O)(O)OC[C@H]2O[C@@H](OCCCO)[C@H](O)[C@@H]2O)[C@@H](O)[C@H]1O,78.9 µM (inactive),> 100 µM (inactive),–
CN[C@H](C)[C@@H](OC)c1ccccc1,–,–,GI50 (DMS-114): > 100 µM (inactive); GI50 (DLD-1): > 100 µM (inactive); GI50 (DMS-273): > 100 µM (inactive); GI50 (KM-20L2): > 100 µM (inactive); GI50 (HOP-18): > 100 µM (inactive); GI50 (XF498): > 100 µM (inactive)
Cc1ccc(SCC(CF)OC(C)n2cnc3c(Cl)nc(N)nc32)cc1 (stereo not given),89.1 µM (inactive),16 µM (inactive),–
Cc1ncc(C/N=C/c2ccc(Cl)cc2)c(N)n1,> 100 µM (inactive),> 100 µM (inactive),–
CN(C)CCNC(=O)c1cccc2c(Nc3ccc(S(=O)(=O)N=C(N)N)cc3)c3ccccc3nc12,–,–,GI50 (DMS-114): 2.34 µM (inactive); GI50 (DLD-1): 69.8 µM (inactive); GI50 (DMS-273): 6.59 µM (inactive); GI50 (KM-20L2): 32.9 µM (inactive); GI50 (XF498): 19.3 µM (inactive)
CC(=O)NC(CCCCNCc1ccccc1)C(=O)NCc1ccccc1 (stereo not given),–,–,GI50 (DMS-114): > 100 µM (inactive); GI50 (DLD-1): > 100 µM (inactive); GI50 (DMS-273): > 100 µM (inactive); GI50 (KM-20L2): > 100 µM (inactive); GI50 (XF498): > 100 µM (inactive)
CCN(CC)CCNC(=O)c1ccccc1Nc1c(Cl)cccc1Cl,–,–,GI50 (DMS-114): 11.6 µM (inactive); GI50 (DLD-1): 11.7 µM (inactive); GI50 (DMS-273): 16.5 µM (inactive); GI50 (KM-20L2): 2.92 µM (inactive); GI50 (XF498): 4.19 µM (inactive)
